Reference: US10407428B2, “Spiro-isoquinoline-1,4′-piperidine compounds having multimodal activity against pain” (ESTEVE PHARMACEUTICALS, S.A., priority 2014, dated 2019)
pKi: −log10 of the molar value.

The molecules below were run against human σ1 receptor and human μ-opioid receptor (assay: Human σ1 receptor radioligand assay and human μ-opioid receptor radioligand assay (μ and σ1 dual binding)). Settings: not given.
Parameters: key to μ and σ1 dual binding: +: Both Ki-μ and Ki-σ1>=500 nM; ++: One Ki<500 nM while the other Ki is >=500 nM; +++: Both Ki-μ and Ki-σ1<500 nM; ++++: Both Ki-μ and Ki-σ1<100 nM

| Structure (SMILES) | pKi | μ and σ1 dual binding |
| --- | --- | --- |
| CN1CCc2ccccc2C12CCN(CC(=O)c1ccccc1)CC2 [Example 69, 2-(2-methyl-3,4-dihydro-2H-spiro[isoquinoline-1,4′-piperidine]-1′-yl)-1-phenylethanone] | > 6.30 | – |
| CN1CCc2ccccc2C12CCN(CC(=O)N1CCOCC1)CC2 [Example 70, 2-(2-methyl-3,4-dihydro-2H-spiro[isoquinoline-1,4′-piperidine]-1′-yl)-1-morpholinoethanone] | > 6.30 | – |
| CN1CCc2ccccc2C12CCN(CC(=O)N1CCCCC1)CC2 [Example 71, 2-(2-methyl-3,4-dihydro-2H-spiro[isoquinoline-1,4′-piperidine]-1′-yl)-1-(piperidin-1-yl)ethanone] | > 6.30 | – |
| CN(C(=O)CN1CCC2(CC1)c1ccccc1CCN2C)c1ccccc1 [Example 72, N-methyl-2-(2-methyl-3,4-dihydro-2H-spiro[isoquinoline-1,4′-piperidine]-1′-yl)-N-phenylacetamide] | – | ++ |
| CN(C)C(=O)CN1CCC2(CC1)c1ccccc1CCN2C [Example 73, N,N-dimethyl-2-(2-methyl-3,4-dihydro-2H-spiro[isoquinoline-1,4′-piperidine]-1′-yl)acetamide] | – | ++ |
| CN1CCc2ccccc2C12CCN(CCC1CCOCC1)CC2 [Example 74, 2-methyl-1′-(2-(tetrahydro-2H-pyran-4-yl)ethyl)-3,4-dihydro-2H-spiro[isoquinoline-1,4′-piperidine]] | > 6.30 | – |
| CN1CCc2ccccc2C12CCN(CCc1ccccn1)CC2 [Example 75, 2-methyl-1′-(2-(pyridin-2-yl)ethyl)-3,4-dihydro-2H-spiro[isoquinoline-1,4′-piperidine]] | > 6.30 | – |
| CN1CCc2ccccc2C12CCN(CCc1cccnc1)CC2 [Example 76, 2-methyl-1′-(2-(pyridin-3-yl)ethyl)-3,4-dihydro-2H-spiro[isoquinoline-1,4′-piperidine]] | > 6.30 | – |
| COCCN1CCC2(CC1)c1ccccc1CCN2C [Example 77, 1′-(2-methoxyethyl)-2-methyl-3,4-dihydro-2H-spiro[isoquinoline-1,4′-piperidine]] | – | ++ |
| CC(C)OCCN1CCC2(CC1)c1ccccc1CCN2C [Example 78, 1′-(2-isopropoxyethyl)-2-methyl-3,4-dihydro-2H-spiro[isoquinoline-1,4′-piperidine]] | > 6.30 | – |
| CN1CCc2ccccc2C12CCN(CCN1CCCCC1)CC2 [Example 79, 2-methyl-1′-(2-(piperidin-1-yl)ethyl)-3,4-dihydro-2H-spiro[isoquinoline-1,4′-piperidine]] | > 6.30 | – |
| CN(C(=O)CCN1CCC2(CC1)c1ccccc1CCN2C)c1ccccc1 [Example 81, N-methyl-3-(2-methyl-3,4-dihydro-2H-spiro[isoquinoline-1,4′-piperidine]-1′-yl)-N-phenylpropanamide] | – | ++ |
| CN1CCc2ccccc2C12CCN(Cc1ccccn1)CC2 [Example 82, 2-methyl-1′-(pyridin-2-ylmethyl)-3,4-dihydro-2H-spiro[isoquinoline-1,4′-piperidine]] | > 6.30 | – |
| CN1CCc2ccccc2C12CCN(Cc1ccncc1)CC2 [Example 83, 2-methyl-1′-(pyridin-4-ylmethyl)-3,4-dihydro-2H-spiro[isoquinoline-1,4′-piperidine]] | – | ++ |
| CN1CCc2ccccc2C12CCN(Cc1cccnc1)CC2 [Example 84, 2-methyl-1′-(pyridin-3-ylmethyl)-3,4-dihydro-2H-spiro[isoquinoline-1,4′-piperidine]] | > 6.30 | – |
| CC(C(=O)N1CCC(F)CC1)N1CCC2(CC1)c1ccccc1CCN2C (stereo not drawn) [Example 86, 1-(4-fluoropiperidin-1-yl)-2-(2-methyl-3,4-dihydro-2H-spiro[isoquinoline-1,4′-piperidine]-1′-yl)propan-1-one] | – | ++ |
| CC(C)CN(C)C(=O)CN1CCC2(CC1)c1ccccc1CCN2C [Example 87, N-isobutyl-N-methyl-2-(2-methyl-3,4-dihydro-2H-spiro[isoquinoline-1,4′-piperidine]-1′-yl)acetamide] | – | ++ |
| CN1CCc2ccccc2C12CCN(CC(=O)N1CCCC(F)(F)C1)CC2 [Example 88, 1-(3,3-difluoropiperidin-1-yl)-2-(2-methyl-3,4-dihydro-2H-spiro[isoquinoline-1,4′-piperidine]-1′-yl)ethanone] | – | ++ |
| CCN(C(=O)CN1CCC2(CC1)c1ccccc1CCN2C)C(C)C [Example 89, N-ethyl-N-isopropyl-2-(2-methyl-3,4-dihydro-2H-spiro[isoquinoline-1,4′-piperidine]-1′-yl)acetamide] | > 6.30 | – |

| Structure (SMILES) | pKi | μ and σ1 dual binding |
| --- | --- | --- |
| CN1CCc2ccccc2C12CCN(CC(=O)N1CCCC1)CC2 [Example 90, 2-(2-methyl-3,4-dihydro-2H-spiro[isoquinoline-1,4′-piperidine]-1′-yl)-1-(pyrrolidin-1-yl)ethanone] | – | ++ |
| CN1CCc2ccccc2C12CCN(CC(=O)N1CCC(C(F)(F)F)CC1)CC2 [Example 91, 2-(2-methyl-3,4-dihydro-2H-spiro[isoquinoline-1,4′-piperidine]-1′-yl)-1-(4-(trifluoromethyl)piperidin-1-yl)ethanone] | > 6.30 | – |
| CN1CCc2ccccc2C12CCN(CC(=O)N1CCC(F)(F)C1)CC2 [Example 92, 1-(3,3-difluoropyrrolidin-1-yl)-2-(2-methyl-3,4-dihydro-2H-spiro[isoquinoline-1,4′-piperidine]-1′-yl)ethanone] | – | ++ |
| CN(Cc1ccccc1)C(=O)CN1CCC2(CC1)c1ccccc1CCN2C [Example 93, N-benzyl-N-methyl-2-(2-methyl-3,4-dihydro-2H-spiro[isoquinoline-1,4′-piperidine]-1′-yl)acetamide] | > 7.00 | – |
| CN1CCc2ccccc2C12CCN(CC(=O)N1CC[C@H](F)C1)CC2 [Example 94, (S)-1-(3-fluoropyrrolidin-1-yl)-2-(2-methyl-3,4-dihydro-2H-spiro[isoquinoline-1,4′-piperidine]-1′-yl)ethanone] | – | ++ |
| CN1CCc2ccccc2C12CCN(CC(=O)N1CC[C@@H](F)C1)CC2 [Example 95, (R)-1-(3-fluoropyrrolidin-1-yl)-2-(2-methyl-3,4-dihydro-2H-spiro[isoquinoline-1,4′-piperidine]-1′-yl)ethanone] | – | ++ |
| CN1CCc2ccccc2C12CCN(CC(O)c1cccnc1)CC2 (stereo not drawn) [Example 96, 2-(2-methyl-3,4-dihydro-2H-spiro[isoquinoline-1,4′-piperidine]-1′-yl)-1-(pyridin-3-yl)etanol] | – | ++ |
| CN1CCc2ccccc2C12CCN(CC(O)c1ccccn1)CC2 (stereo not drawn) [Example 97, 2-(2-methyl-3,4-dihydro-2H-spiro[isoquinoline-1,4′-piperidine]-1′-yl)-1-(pyridin-2-yl)ethanol] | – | ++ |
| CN1CCc2ccccc2C12CCN(CC(O)c1ccncc1)CC2 (stereo not drawn) [Example 98, 2-(2-methyl-3,4-dihydro-2H-spiro[isoquinoline-1,4′-piperidine]-1′-yl)-1-(pyridin-4-yl)ethanol] | > 6.30 | – |
| CN1CCc2ccccc2C12CCN(C[C@H](O)c1ccncc1)CC2 [Example 99, (R)-2-(2-methyl-3,4-dihydro-2H-spiro[isoquinoline-1,4′-piperidine]-1′-yl)-1-(pyridin-4-yl)ethanol] | > 6.30 | – |
| CN1CCc2ccccc2C12CCN(C[C@@H](O)c1ccncc1)CC2 [Example 100, (S)-2-(2-methyl-3,4-dihydro-2H-spiro[isoquinoline-1,4′-piperidine]-1′-yl)-1-(pyridin-4-yl)ethanol] | > 6.30 | – |
| CCN(CC1CC1)C(=O)CN1CCC2(CC1)c1ccccc1CCN2C [Example 101, N-(cyclopropylmethyl)-N-ethyl-2-(2-methyl-3,4-dihydro-2H-spiro[isoquinoline-1,4′-piperidine]-1′-yl)acetamide] | > 6.30 | – |
| CC(C)N(C(=O)CN1CCC2(CC1)c1ccccc1CCN2C)C(C)C [Example 102, N,N-diisopropyl-2-(2-methyl-3,4-dihydro-2H-spiro[isoquinoline-1,4′-piperidine]-1′-yl)acetamide] | – | ++ |
| CC(C)N(C)C(=O)CN1CCC2(CC1)c1ccccc1CCN2C [Example 103, N-isopropyl-N-methyl-2-(2-methyl-3,4-dihydro-2H-spiro[isoquinoline-1,4′-piperidine]-1′-yl)acetamide] | > 6.30 | – |
| CCN(CC(C)C)C(=O)CN1CCC2(CC1)c1ccccc1CCN2C [Example 104, N-ethyl-N-isobutyl-2-(2-methyl-3,4-dihydro-2H-spiro[isoquinoline-1,4′-piperidine]-1′-yl)acetamide] | – | ++ |
| CCCN(CC)C(=O)CN1CCC2(CC1)c1ccccc1CCN2C [Example 105, N-ethyl-2-(2-methyl-3,4-dihydro-2H-spiro[isoquinoline-1,4′-piperidine]-1′-yl)-N-propylacetamide] | – | ++ |
| CCN(C(=O)CN1CCC2(CC1)c1ccccc1CCN2C)C1CC1 [Example 106, N-cyclopropyl-N-ethyl-2-(2-methyl-3,4-dihydro-2H-spiro[isoquinoline-1,4′-piperidine]-1′-yl)acetamide] | > 6.30 | – |
| CCCN(C(=O)CN1CCC2(CC1)c1ccccc1CCN2C)C(C)C [Example 107, N-isopropyl-2-(2-methyl-3,4-dihydro-2H-spiro[isoquinoline-1,4′-piperidine]-1′-yl)-N-propylacetamide] | – | ++ |

Same assay, conditions: combined class for Ki-μ ([3H]-DAMGO, CHO-K1 membranes) and Ki-σ1 ([3H](+)-pentazocine, HEK-293 membranes)

| Structure (SMILES) | pKi |
| --- | --- |
| CN1CCc2ccccc2C12CCN(CCN1CCOCC1=O)CC2 [Example 80, 4-(2-(2-methyl-3,4-dihydro-2H-spiro[isoquinoline-1,4′-piperidine]-1′-yl)ethyl)morpholin-3-one] | ≤ 6.30 |
| CN1CCc2ccccc2C12CCN(CCc1cccc([N+](=O)[O-])c1)CC2 [Example 85, 2-methyl-1′-(3-nitrophenethyl)-3,4-dihydro-2H-spiro[isoquinoline-1,4′-piperidine]] | ≤ 6.30 |
